Experimental findings from patent US20260364184A1, “COMPOUND BASED ON OXOISOINDOLINYL-SUBSTITUTED TETRAHYDROPYRIMIDINE-DIONE AND USE THEREOF” (GLUETACS THERAPEUTICS (SHANGHAI) CO., LTD., priority 2023, published 2026) are described below.

Each structure is given as a SMILES string.

In assay [1] the test system is Human large cell immunoblastic lymphoma cell line SR. As to the kind of experiment: Inhibition of SR cell proliferation (CellTiter luminescent viability). It is filed as cell-based. To be noted: Table IB1, ALK inhibitor-based, 96 hours, read-out: Inhibitory activity (IC50, nM) on tumor cell proliferation, SR. The method in brief:
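Cells are seeded in 96-well plates, cultured at 37 °C, 5% CO2, and treated next day with 5-fold serial compound dilutions (stock series from 2000 μM; 0.5 μL into 100 μL medium). Viability is read by CellTiter-Meiluncell luminescence after the set exposure, and IC50 is taken from growth-inhibition curves.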

The target in another assay is T1, ALK (Homo sapiens, UniProt Q9UM73).
T1 construct: known EML4-ALK variant 3 fusion, ALK kinase part unmutated), Western blot
Nature of the assay: Western blot degradation of ALK. As to conditions: H2228 Cell; 24 hours. It is filed as cell-based. As for the experimental part: (§1) Conventional Western blot assay was performed to evaluate the effects of the compounds of the present disclosure on the expression of target proteins in cells.
(§2) (1) Cell Seeding and Protein Harvesting: The selected cells were processed according to the cell seeding procedure and protein harvesting procedure in Table II-2.
(§3) (2) To the collected supernatant, 5×SDS sample loading buffer was added, followed by denaturation at 95 °C for 5 minutes. The denatured samples were then separated by SDS-PAGE electrophoresis on a polyacrylamide gel. Proteins were transferred to a nitrocellulose membrane (0.45 μm NC membrane), blocked with blocking buffer at room temperature for 1 hour, and subjected to antibody incubation and development procedures according to the antibody manufacturer's instructions (Cell Signaling Technology).
(§4) Half-Maximal Degradation Concentration value (the drug concentration required for degrading proteins by 50%, abbreviated as DC50) reads method: comparing the grayscale values of Western blot bands from drug-treated samples with those from blank DMSO-treated controls, and identifying the drug concentration range at which the grayscale value is half that of the DMSO-treated control bands.
(§5) DC50 values can be calculated using ImageJ software to measure grayscale values of Western blot bands from drug-treated samples. The concentration-response curve is fitted to estimate the drug concentration corresponding to half the grayscale value.
(§6) Target protein remaining (%) refers to the percentage of target protein remaining in cells after treatment with protein degrader compounds.
(§7) Calculation method for target protein remaining (%): Use ImageJ software to measure grayscale values of Western blot bands from drug (protein degrader)-treated samples. The grayscale value of drug-treated bands is divided by that of internal control protein bands, and the resulting quotient is normalized to obtain the relative percentage of remaining target protein after protein degrader treatment.
(§8) Target protein degradation rate (%)=1−target protein remaining (%).
(In general: In western blotting, separated proteins are transferred to a membrane and probed.)

In assay [2] the test system is Human malignant melanoma cell line (A375). As to the kind of experiment: Inhibition of A375 cell proliferation (CellTiter luminescent viability). To be noted: A-375, Table III (II1), EZH2 inhibitor-based, 96 hours; for inhibition at 0.01 µM: A375, 10 nM, read-out: Inhibition Rate at 10 nM (%); for inhibition at 0.5 µM: A375, 500 nM, read-out: Inhibition Rate at 500 nM (%). On the procedure:
(§9) The tumor cells used herein were cultured in a cell culture medium listed in table 3 at 37 °C in an incubator with 5% CO2. Prior to experimentation, all cell lines used were correctly identified by STR profiling, and tested negative for mycoplasma contamination using a mycoplasma detection kit through routine screenings.
(§10) The IC50 values of the compounds of the present disclosure (including the compounds in Table 1, Table 2, and Examples 1-468) were determined using the CellTiter-Meiluncell Luminescent Cell Viability Assay Kit from Dalian Meilun Biotech Co., Ltd. The detailed procedure is as follows: Tumor cells were seeded in 96-well cell culture plates at the densities specified in Table 4. On the following day, the test compounds of the present disclosure were subjected to serial dilution. The dilution can be performed according to one of the following two methods: • (1) The first dilution method: The test compounds of the present disclosure (including the compounds in Table 1, Table 2, and Examples 1-468) were subjected to 5-fold serial dilutions starting from a highest concentration of 2000 μM, resulting in a total of 9 concentrations from high to low (2000, 400, 80, 16, 3.2, 0.64, 0.128, 0.0256, 0.00512 μM). Subsequently, 0.5 μL of the test compound dilution was transferred into the 96-well plate containing the cells, with each well containing 100 μL of cell culture medium. […] Into the 96-well plate, the diluted test compounds and corresponding detection reagents were added, resulting in final test compound concentrations of 500 nM and 10 nM, respectively. The experimental procedure is described below using the diluted 2 μM test compound as an example.
(§11) 0.5 μL of the aforementioned diluted compound of the present disclosure (including the compounds in Table 1, Table 2, and Examples 1-468) was added to the seeded cells in 100 μL of medium, yielding a final test compound concentration of 10 nM. After the cells were treated with the compounds of the present disclosure for a specified period, the cell viability assay reagent was added to the culture medium according to the kit's instructions to determine cell viability. […] All controls were treated using the same procedure as the compounds of the present disclosure. The growth inhibition curves for the compounds of the present disclosure were plotted using Prism GraphPad software, and the IC50 values were calculated therefrom.

Assay [3] has as its system Human neuroblastoma cell line (SK-N-AS). Nature of the assay: Inhibition of SK-N-AS cell proliferation (CellTiter luminescent viability). The format is cell-based. As to conditions: Table II2, EZH2 inhibitor-based, 96 hours. As for the experimental part: as §9, §10, §11
The subject of a further assay is AKT. Nature of the assay: Western blot degradation of AKT. The format is cell-based. To be noted: hPBMC Cell; 24 hours. As for the experimental part:
as §1, §2, §3, §4, §5, §6, §7, §8

T1 sequence (Q9UM73 19-1620): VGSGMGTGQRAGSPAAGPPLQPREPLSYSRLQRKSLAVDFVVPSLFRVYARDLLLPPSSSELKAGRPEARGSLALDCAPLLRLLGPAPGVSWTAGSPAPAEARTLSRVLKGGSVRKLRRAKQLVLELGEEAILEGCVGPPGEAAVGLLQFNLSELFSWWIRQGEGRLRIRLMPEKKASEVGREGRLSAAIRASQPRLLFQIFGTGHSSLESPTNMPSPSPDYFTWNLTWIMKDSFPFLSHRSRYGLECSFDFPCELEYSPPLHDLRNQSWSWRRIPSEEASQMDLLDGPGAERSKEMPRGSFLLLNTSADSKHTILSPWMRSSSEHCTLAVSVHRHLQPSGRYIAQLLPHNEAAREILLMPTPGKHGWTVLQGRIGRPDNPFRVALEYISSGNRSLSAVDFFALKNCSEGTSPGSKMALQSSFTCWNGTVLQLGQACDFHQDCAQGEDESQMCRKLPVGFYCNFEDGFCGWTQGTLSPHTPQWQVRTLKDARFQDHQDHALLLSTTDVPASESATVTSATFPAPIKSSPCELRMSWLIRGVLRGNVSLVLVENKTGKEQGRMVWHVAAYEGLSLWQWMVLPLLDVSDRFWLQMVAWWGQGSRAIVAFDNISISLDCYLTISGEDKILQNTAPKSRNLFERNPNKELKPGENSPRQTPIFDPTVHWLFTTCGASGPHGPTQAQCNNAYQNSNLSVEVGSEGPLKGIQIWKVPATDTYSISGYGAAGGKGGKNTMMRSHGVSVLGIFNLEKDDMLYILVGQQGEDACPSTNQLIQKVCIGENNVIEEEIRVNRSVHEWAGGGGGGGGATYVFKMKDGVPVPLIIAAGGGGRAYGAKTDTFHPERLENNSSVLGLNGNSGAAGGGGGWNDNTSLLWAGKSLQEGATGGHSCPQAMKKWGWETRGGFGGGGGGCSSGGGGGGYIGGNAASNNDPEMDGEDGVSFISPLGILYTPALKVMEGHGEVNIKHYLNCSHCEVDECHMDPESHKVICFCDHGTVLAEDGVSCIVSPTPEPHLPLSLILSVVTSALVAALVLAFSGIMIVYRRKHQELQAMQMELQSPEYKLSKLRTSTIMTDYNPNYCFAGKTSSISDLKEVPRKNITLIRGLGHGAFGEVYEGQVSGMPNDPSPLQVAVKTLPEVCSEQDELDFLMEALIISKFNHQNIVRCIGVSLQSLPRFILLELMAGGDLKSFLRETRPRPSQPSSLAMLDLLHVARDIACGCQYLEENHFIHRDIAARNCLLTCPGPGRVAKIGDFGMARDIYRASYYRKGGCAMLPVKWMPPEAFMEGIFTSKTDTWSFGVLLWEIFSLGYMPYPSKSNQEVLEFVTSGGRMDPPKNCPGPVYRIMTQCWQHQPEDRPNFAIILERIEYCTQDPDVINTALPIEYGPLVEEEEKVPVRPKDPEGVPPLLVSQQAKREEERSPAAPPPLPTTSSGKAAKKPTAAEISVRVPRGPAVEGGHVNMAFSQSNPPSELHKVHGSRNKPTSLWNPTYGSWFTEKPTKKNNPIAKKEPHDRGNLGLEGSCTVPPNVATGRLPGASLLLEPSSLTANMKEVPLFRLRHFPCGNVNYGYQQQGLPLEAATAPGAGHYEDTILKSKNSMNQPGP
T1 sequence (Q96SW2 whole entry partner, the tested form may be a part): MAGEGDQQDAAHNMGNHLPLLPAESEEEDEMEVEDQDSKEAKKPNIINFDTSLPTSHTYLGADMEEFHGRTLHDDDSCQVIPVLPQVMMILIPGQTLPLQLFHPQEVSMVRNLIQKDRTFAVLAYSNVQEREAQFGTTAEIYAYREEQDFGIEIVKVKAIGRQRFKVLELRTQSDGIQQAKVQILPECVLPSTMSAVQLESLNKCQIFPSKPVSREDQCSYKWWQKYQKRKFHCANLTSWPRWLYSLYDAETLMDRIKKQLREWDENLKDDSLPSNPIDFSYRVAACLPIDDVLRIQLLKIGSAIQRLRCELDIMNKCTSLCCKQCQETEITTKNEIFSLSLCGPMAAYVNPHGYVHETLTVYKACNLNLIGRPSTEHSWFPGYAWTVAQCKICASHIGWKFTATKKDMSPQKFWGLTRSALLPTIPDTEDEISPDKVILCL

Regarding `COc1cc(N2CCN(CC3CCN(c4cccc5c4C(=O)N(N4CCC(=O)NC4=O)C5=O)CC3)CC2)ccc1Nc1ncc(Cl)c(Nc2ccccc2P(C)(C)=O)n1` [GT-07344, 4-(4-((4-(4-((5-chloro-4-((2-(dimethylphosphoryl)phenyl)amino)pyrimidin-2-yl)amino)-3-methoxyphenyl)piperazin-1-yl)methyl)piperidin-1-yl)-2-(2,4-dioxotetrahydropyrimidin-1(2H)-yl)isoindoline-1,3-dione], in assay [1], the IC50 is 50 to 100 nM. The “Degradation of substrate protein ALK (substrate protein remaining %)” value on ALK was “A (0%≤substrate protein remaining %≤80%)”.

Consider `Cc1cc(Nc2ncc(Cl)c(Nc3ccccc3S(=O)(=O)C(C)C)n2)c(OC(C)C)cc1C1CCN(Cc2ccc3c(c2)CN(N2CCC(=O)NC2=O)C3=O)CC1` [GT-07362, 1-(5-((4-(4-((5-chloro-4-((2-(isopropylsulfonyl)phenyl)amino)pyrimidin-2-yl)amino)-5-isopropoxy-2-methylphenyl)piperidin-1-yl)methyl)-1-oxoisoindolin-2-yl)dihydropyrimidine-2,4 (1H,3H)-dione], for which the IC50 in assay [1] was in the range of 10 to 50 nM. Further, the “Degradation of substrate protein ALK (substrate protein remaining %)” value at ALK is recorded as “A (0%≤substrate protein remaining %≤80%)”.

`Cc1cc(Nc2ncc(Cl)c(Nc3ccccc3S(=O)(=O)C(C)C)n2)c(OC(C)C)cc1C1CCN(Cc2ccc3c(c2)C(=O)N(N2CCC(=O)NC2=O)C3=O)CC1` [GT-07363, 5-((4-(4-((5-chloro-4-((2-(isopropylsulfonyl)phenyl)amino)pyrimidin-2-yl)amino)-5-isopropoxy-2-methylphenyl)piperidin-1-yl)methyl)-2-(2,4-dioxotetrahydropyrimidin-1(2H)-yl)isoindoline-1,3-dione]: the IC50 in assay [1] was 100 to 300 nM. For the same compound, the “Degradation of substrate protein ALK (substrate protein remaining %)” value at ALK is given as “A (0%≤substrate protein remaining %≤80%)”.

In the case of `CCN(c1cc(-c2ccc(CN3CCN(Cc4ccc5c(c4)CN(N4CCC(=O)NC4=O)C5=O)CC3)cc2)cc(C(=O)NCc2c(C)cc(C)[nH]c2=O)c1C)C1CCOCC1` [GT-08508, N-((4,6-dimethyl-2-oxo-1,2-dihydropyridin-3-yl)methyl)-4′-((4-((2-(2,4-dioxotetrahydropyrimidin-1(2H)-yl)-1-oxoisoindolin-5-yl)methyl)piperazin-1-yl)methyl)-5-(ethyl(tetrahydro-2H-pyran-4-yl)amino)-4-methyl-[1,1′-biphenyl]-3-carboxamide], in assay [2], the inhibition at 0.01 µM was 20 to 30% and the inhibition at 0.5 µM was in the range of 20 to 30%.

As to `CCN(c1cc(-c2ccc(N3CCN(C4CCN(Cc5ccc6c(c5)C(=O)N(N5CCC(=O)NC5=O)C6=O)CC4)CC3)cc2)cc(C(=O)NCc2c(C)cc(C)[nH]c2=O)c1C)C1CCOCC1` [GT-08515, N-((4,6-dimethyl-2-oxo-1,2-dihydropyridin-3-yl)methyl)-4′-(4-(1-((2-(2,4-dioxotetrahydropyrimidin-1(2H)-yl)-1,3-dioxoisoindolin-5-yl)methyl)piperidin-4-yl)piperazin-1-yl)-5-(ethyl(tetrahydro-2H-pyran-4-yl)amino)-4-methyl-[1,1′-biphenyl]-3-carboxamide], the inhibition at 0.01 µM lay within 20 to 30% in assay [2] and 20 to 30% in assay [3] (10 nM, read-out: Inhibition Rate at 10 nM (%)). The inhibition at 0.5 µM in assay [2] was 20 to 30%; in assay [3] (500 nM, read-out: Inhibition Rate at 500 nM (%)), 20 to 30%.

Take `CCCc1cc(C)[nH]c(=O)c1CNC(=O)c1cc(-c2ccc(N3CCN(CC4CCN(c5ccc6c(c5)C(=O)N(N5CCC(=O)NC5=O)C6=O)CC4)CC3)nc2)cc2c1cnn2C(C)C` [GT-08516, 6-(6-(4-((1-(2-(2,4-dioxotetrahydropyrimidin-1(2H)-yl)-1,3-dioxoisoindolin-5-yl)piperidin-4-yl)methyl)piperazin-1-yl)pyridin-3-yl)-1-isopropyl-N-((6-methyl-2-oxo-4-propyl-1,2-dihydropyridin-3-yl)methyl)-1H-indazole-4-carboxamide]: in assay [2], the inhibition at 0.01 µM was 20 to 30% and the inhibition at 0.5 µM was in the range of 20 to 30%.

As for `CCN(c1cc(-c2ccc(CN3CCN(CC4CCN(c5ccc6c(c5)C(=O)N(N5CCC(=O)NC5=O)C6=O)CC4)CC3)cc2)cc(C(=O)NCc2c(C)cc(C)[nH]c2=O)c1C)C1CCOCC1` [GT-08518, N-((4,6-dimethyl-2-oxo-1,2-dihydropyridin-3-yl)methyl)-4′-((4-((1-(2-(2,4-dioxotetrahydropyrimidin-1(2H)-yl)-1,3-dioxoisoindolin-5-yl)piperidin-4-yl)methyl)piperazin-1-yl)methyl)-5-(ethyl(tetrahydro-2H-pyran-4-yl)amino)-4-methyl-[1,1′-biphenyl]-3-carboxamide], in assay [2], the inhibition at 0.01 µM was 20 to 30% and the inhibition at 0.5 µM fell in the range of 20 to 30%.

As to `Cn1ncc(Cl)c1-c1cc(C(=O)N[C@H](CNCc2ccc3c(c2)CN(N2CCC(=O)NC2=O)C3=O)Cc2cccc(F)c2)sc1Cl` [GT-08572, (S)-5-chloro-4-(4-chloro-1-methyl-1H-pyrazol-5-yl)-N-(1-(((2-(2,4-dioxotetrahydropyrimidin-1(2H)-yl)-1-oxoisoindolin-5-yl)methyl)amino)-3-(3-fluorophenyl)propan-2-yl)thiophene-2-carboxamide], the “Degradation of substrate protein AKT (substrate protein remaining %)” value with AKT is “A (0%≤substrate protein remaining %≤80%)”.

As for `Nc1ncccc1-c1nc2ccc(-c3ccccc3)nc2n1-c1ccc(C2(NCc3ccc4c(c3)CN(N3CCC(=O)NC3=O)C4=O)CCC2)cc1` [GT-08573, 1-(5-(((1-(4-(2-(2-aminopyridin-3-yl)-5-phenyl-3H-imidazo[4,5-b]pyridin-3-yl)phenyl)cyclobutyl)amino)methyl)-1-oxoisoindolin-2-yl)dihydropyrimidine-2,4 (1H,3H)-dione], in the assay on AKT, the “Degradation of substrate protein AKT (substrate protein remaining %)” value is recorded as “A (0%≤substrate protein remaining %≤80%)”.

Consider `Cn1ncc(Cl)c1-c1cc(C(=O)N[C@@H](Cc2ccc(F)c(F)c2)CN2CCN(Cc3ccc4c(c3)CN(N3CCC(=O)NC3=O)C4=O)CC2)oc1Cl` [GT-08575, (S)-5-chloro-4-(4-chloro-1-methyl-1H-pyrazol-5-yl)-N-(1-(3,4-difluorophenyl)-3-(4-((2-(2,4-dioxotetrahydropyrimidin-1(2H)-yl)-1-oxoisoindolin-5-yl)methyl)piperazin-1-yl)propan-2-yl) furan-2-carboxamide], for which the “Degradation of substrate protein AKT (substrate protein remaining %)” value with AKT is on record as “A (0%≤substrate protein remaining %≤80%)”.

For the compound `CCN(c1cc(-c2ccc(CN3CCOCC3)cc2)cc(C(=O)NCc2c(C)cc(C)[nH]c2=O)c1C)C1CCOCC1` [Tazemetostat, reference compound], in assay [2], the inhibition at 0.01 µM lay in the range of 0 to 5% and the inhibition at 0.5 µM lay within 0 to 5%.

What is called inhibition is how much of the control response was suppressed.
